Patent publication US10851097B2, “4,5,6,7-tetrahydro-1H-imidazo[4,5-c]pyridine and 1,4,5,6,7,8-hexahydroimidazo[4,5-d]azepine derivatives as janus kinase inhibitors” (Topivert Pharma Limited, priority 2015, dated 2020)
≈ marks a conversion by molar mass, not a printed value. Where two headings read alike, the source gives them in different places.

Columns and labels:
[1] = system: CD3/IL2 stimulated PBMC cells; test: IFNγ release from CD3/IL2 stimulated PBMC cells (assay (a)); assay type: cell-based; settings: Homo sapiens, CD3/IL2 stimulation, 48 h, ELISA
Protocol: (a) IFNγ Release from CD3/IL2 Stimulated PBMC Cells
PBMCs from healthy subjects are separated from whole blood using a density gradient (Lymphoprep, Axis-Shield Healthcare). Cells are added to a 96 well plate, and compound at the desired concentration added 2 hours prior to stimulation with a mixture of monoclonal antibody to CD3 (1 μg/ml, eBioscience) and human recombinant IL2 (10 ng/ml, Peprotech). After 48 hours incubation under normal tissue culture conditions, supernatants are collected and IFNγ release determined by Sandwich ELISA (Duo-set, R&D System). The IC50 is determined from the dose response curve.

Jurkat cells = test: Cell cytotoxicity assay in Jurkat cells (assay (c)); assay type: cell-based, human; settings: 24 h, propidium iodide, normalised to DMSO control
Protocol: (c) Cell Cytotoxicity Assay
1×10^5 Jurkat cells (immortalised human T lymphocytes) are added to the appropriate number of wells of a 96 well plate in 100 μL of media (RPMI supplemented with 10% foetal bovine serum). 1 μL of DMSO control (final concentration 1.0% v/v) or test compound (final concentration 20, 5 or 1 μg/mL) is added to the wells and incubated at 37° C., 5% CO2. After 24 hours, the plate is centrifuged at 1200 rpm for 3 minutes and the supernatant discarded. Cells are then resuspended in 150 μL (final concentration 7.5 μg/mL) of propidium iodide (PI) in PBS and incubated at 37° C., 5% CO2 for 15 minutes. After 15 minutes, cells are analysed by flow cytometry (BD accuri) using the FL3 window. The % viability is calculated as the % of cells that are PI negative in the test wells normalised to the DMSO control.

[2] = Solubility in fasted-state simulated colonic fluid (FaSSCoF) at pH 6.5; assay type: physicochemical; settings: 25 °C, pH 6.5, fassgf or other biorelevant, thermodynamic from solid, pH 6.5, 25° C.
Protocol: The solubilities of compounds of the invention in FaSSCoF at pH 6.5 are determined using a modification of a previously-reported procedure (Vertzoni, M., et al. Pharm. Res. 2010, 27, 2187-2196). In place of the bile salt extract employed in the original procedure (which extract is no longer available), the modified procedure uses a mixture of sodium taurochlorate (0.15 g), glycocholic acid (0.15 g), ursodeoxycholic acid (0.05 g), cholic acid (0.05 g), and glycodeoxycholic acid (0.05 g). These five bile acids are ground together with a mortar and pestle to produce a fine white powder that is incorporated into the FaSSCoF, as outlined below.
Tris(hydroxymethyl)aminomethane (Tris; 0.275 g) and maleic acid (0.44 g) are dissolved in water (35 mL) to give a solution whose pH is adjusted to 6.5 by treatment with 0.5M NaOH (ca. 12 mL). The solution is then made up to 50 mL with water. A portion of this Tris/maleate buffer solution (ca. 25 mL) is added to a 0.5 L round-bottomed flask, before being treated with 0.00565 g of the bile acid mixture described above. Solutions of phosphatidylcholine (0.0111 g) in DCM (0.15 mL) and palmitic acid (0.0013 g) in DCM (0.15 mL) are added, then the organic solvent is evaporated off under reduced pressure at 40° C. until a clear solution, with no perceptible DCM odour, is achieved. The volume of the evaporated solution is adjusted to 50 mL by addition of the remainder of Tris/maleate buffer, then BSA (0.115 g) is added, before being dissolved by gentle agitation.
Test compounds are suspended in the pH 6.5 FaSSCoF medium to give a maximum final concentration of 2-10 mg/mL. The suspensions are equilibrated at 25° C. for 24 h, before being filtered through a glass fibre C filter. The filtrates are then diluted as appropriate for injection and quantification by HPLC with reference to a standard. Different volumes of the standard, diluted and undiluted sample solutions are injected and the solubilities are calculated using the peak areas determined by integration of the peak found at the same retention time as the principal peak in the standard injection.

[3] = Systemic pharmacokinetics and total colon tissue distribution after single oral administration in mice; assay type: in vivo, male C57BL/6 mice; settings: oral 10 mg/kg
Protocol: Studies were conducted by Sai Life Sciences (Hinjewadi, Pune, India) to investigate the systemic pharmacokinetics and total colon tissue distribution of compounds of the invention following a single oral administration in male C57BL/6 mice.
A group of twenty four male mice were administered with a solution of test compound formulated at a dose of 10 mg/10 mL/kg in aqueous hydroxypropyl-β-cyclodextrin (20% w/v in water). Blood samples (approximately 60 μL) were collected from retro-orbital plexus of each mouse under light isoflurane anaesthesia such that the samples were obtained at 0.5, 1, 2, 4, 6, 8, 12 and 24 hr. The blood samples were collected from a set of three mice at each time point in a labeled micro centrifuge tube containing K2EDTA as anticoagulant. Plasma samples were separated by centrifugation at 4000 rpm for 10 min and stored below −70° C. until bioanalysis. After collection of blood sample, animals were humanely euthanized by carbon dioxide asphyxiation to collect total colon tissues. The colons were flushed with cold PBS (pH7.4) to remove contents. The total colon tissues were homogenized with cold PBS (pH7.4) of twice the weight of colon tissue and stored below −70° C. Total volume was three times the total colon tissue weights. All samples were processed for analysis by protein precipitation using acetonitrile and analyzed with a fit-for-purpose LC-MS/MS method. Pharmacokinetic parameters were calculated using the non-compartmental analysis tool of Phoenix WinNonlin® (Version 6.3).

- solubility thermodynamic at 24 h ([2]; Run 1, read-out: pH 6.5 FaSSCoF Solubility Run 1): 6 µg/mL (≈ 10.6 µM)
- solubility thermodynamic at 24 h ([2]; Run 2, read-out: pH 6.5 FaSSCoF Solubility Run 2): 6 µg/mL (≈ 10.6 µM)
- AUC(0-t) ([3]; male, C57BL/6, mouse, plasma, read-out: AUC0-24 h P (plasma)): 368 ng·h/mL
- Cmax ([3]; male, C57BL/6, mouse, plasma, read-out: Cmax P (plasma)): 114 ng/mL
- Cmax ([3]; male, C57BL/6, mouse, total colon tissue, total colon, read-out: Cmax C (total colon)): 3230 ng/g
- AUC0-24 h C (total colon) ([3]; total colon): 43,739 h · ng/g
Structure (SMILES): CCc1cc(O)c(F)cc1-c1ccc2c(-c3nc4c([nH]3)CCN(C(=O)c3cnc(N5CCCCC5)cn3)C4)n[nH]c2c1 [Reference Compound, reference compound]
- IC50 [1]: 81.3 nM
- % viability at 1 μg/mL (Jurkat cells): 49%
